Usually inhibition stands for the change of the read-out against control, counted positive when it falls. Broadly, the IC50 is the concentration at which inhibition is half-maximal.

In one series the target is hERG channels (Homo sapiens (Human), UniProt Q12809). Nature of the series: hERG Manual Patch Clamp Assay (HEK 293 cells stably expressing hERG channels). It counts as cell-based. As to conditions: human, HEK 293 cells stably expressing hERG channels, pH 7.4.
A further series addresses hROMK (human Kir1.1) (Homo sapiens (Human), UniProt P48048). Nature of the series: Thallium Flux Assay (FluxOR, CHO T-Rex hROMK stable cell line). The series is classed as cell-based. Conditions: CHO T-Rex hROMK cells, 10-point concentration response curve; read-out: Human ROMK TH Flux IC50.

Chain of hERG channels (Q12809 whole entry): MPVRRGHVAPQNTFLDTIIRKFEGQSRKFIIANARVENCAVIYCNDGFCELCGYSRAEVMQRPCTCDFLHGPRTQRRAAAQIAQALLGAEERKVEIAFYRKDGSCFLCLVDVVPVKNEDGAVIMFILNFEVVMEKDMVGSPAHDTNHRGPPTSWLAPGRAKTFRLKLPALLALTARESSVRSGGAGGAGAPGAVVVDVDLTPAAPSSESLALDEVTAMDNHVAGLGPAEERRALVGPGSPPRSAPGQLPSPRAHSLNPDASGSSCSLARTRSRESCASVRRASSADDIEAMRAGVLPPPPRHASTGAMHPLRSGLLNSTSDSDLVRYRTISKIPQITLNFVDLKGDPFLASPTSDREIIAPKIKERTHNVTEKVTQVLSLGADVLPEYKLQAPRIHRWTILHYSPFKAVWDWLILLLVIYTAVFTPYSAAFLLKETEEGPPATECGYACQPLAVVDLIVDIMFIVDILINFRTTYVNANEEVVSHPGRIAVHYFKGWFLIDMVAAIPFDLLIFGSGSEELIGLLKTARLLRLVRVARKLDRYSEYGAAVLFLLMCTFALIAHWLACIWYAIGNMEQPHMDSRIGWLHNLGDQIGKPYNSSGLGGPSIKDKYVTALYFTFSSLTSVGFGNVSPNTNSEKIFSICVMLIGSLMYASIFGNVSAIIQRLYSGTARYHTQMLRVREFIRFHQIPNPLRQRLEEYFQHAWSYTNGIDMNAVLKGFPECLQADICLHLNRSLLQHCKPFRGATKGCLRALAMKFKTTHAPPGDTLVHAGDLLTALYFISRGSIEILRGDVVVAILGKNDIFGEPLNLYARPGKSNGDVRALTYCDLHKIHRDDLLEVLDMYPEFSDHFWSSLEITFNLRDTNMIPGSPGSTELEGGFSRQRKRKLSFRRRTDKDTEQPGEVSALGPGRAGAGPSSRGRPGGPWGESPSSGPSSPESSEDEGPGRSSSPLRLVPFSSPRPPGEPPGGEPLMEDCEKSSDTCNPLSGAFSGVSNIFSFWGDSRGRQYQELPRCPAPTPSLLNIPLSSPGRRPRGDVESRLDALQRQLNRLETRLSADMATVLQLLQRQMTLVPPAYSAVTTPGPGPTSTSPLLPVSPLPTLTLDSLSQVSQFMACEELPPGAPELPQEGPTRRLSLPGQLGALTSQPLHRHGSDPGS
Chain of hROMK (human Kir1.1) (P48048 whole entry): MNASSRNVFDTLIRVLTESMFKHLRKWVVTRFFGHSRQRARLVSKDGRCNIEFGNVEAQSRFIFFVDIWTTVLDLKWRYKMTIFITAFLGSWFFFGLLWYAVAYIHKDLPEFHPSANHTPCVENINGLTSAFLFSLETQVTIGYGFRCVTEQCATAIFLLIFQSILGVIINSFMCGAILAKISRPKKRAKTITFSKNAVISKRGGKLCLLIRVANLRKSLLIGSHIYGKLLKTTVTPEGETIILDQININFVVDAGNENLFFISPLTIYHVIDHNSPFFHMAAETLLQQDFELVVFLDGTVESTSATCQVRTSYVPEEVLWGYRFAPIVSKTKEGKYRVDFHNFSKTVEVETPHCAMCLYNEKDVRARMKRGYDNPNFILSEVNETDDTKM
Method for hROMK (human Kir1.1): Solutions and reagents: Thallium flux assay was performed using FluxOR kit (F10017, Life Technologies). Loading buffer, assay buffer and stimulus buffer were prepared using kit components.
To prepare 10 ml of loading buffer: 10 μl of FluxOR dye (reconstituted in DMSO) was first added to 100 μl of powerload concentrate and this mix along with 100 μl of Probenicid (100×) was then added to 9.79 ml of HBSS. […] Stimulus buffer was composed of 15 mM Tl2SO4, 0.75 mM K2SO4 in FluxOR chloride free buffer (diluted to 1× using deionized water). The final concentration of Tl2SO4 and K2SO4 in the assay plate was 3 mM and 0.15 mM, respectively.
Plating and induction of cells: The CHO T-Rex hROMK (human Kir1.1) stable cell line was maintained in Ham's F12 media supplemented with 10% FBS, 1% Penicillin-Streptomycin, 500 μg/ml Zeocin and 10 μg/ml Blasticidin at 37° C. in a 5% CO2 incubator. […] The cell suspension was centrifuged at 1200 rpm for 5 min. After discarding the supernatant, the cells were resuspended in fresh growth media and cell concentration was determined using a hemocytometer. […] The assay plate was kept at 37° C. in a 5% CO2 incubator.
Assay protocol: On the day of experiment, media was removed and loading buffer was added (30 μl/well) to the assay plate. The cells were incubated in the loading buffer for 30 minutes at 37° C. The loading buffer was then replaced by assay buffer (30 μl/well) followed by addition of test compounds or controls. […] Each well was read for 90 sec at 2 sec interval and the stimulus buffer was added after 20 seconds of baseline recording. The final DMSO concentration was either 0.5 or 1% in the assay plate. Positive and negative controls were defined by addition of DMSO or 3 μM of a standard ROMK inhibitor, respectively, to the wells instead of a test compound.
A 10-point concentration response curve was used to estimate the IC50 value of test compounds.

With `Cc1c([C@@H](O)CNCc2cnc(-n3cc(C#N)c(C(F)(F)F)n3)nc2)ccc2c1COC2=O` [Example 110, (R)-1-(5-(((2-hydroxy-2-(4-methyl-1-oxo-1,3-dihydroisobenzofuran-5-yl)ethyl)amino)methyl)pyrimidin-2-yl)-3-(trifluoromethyl)-1H-pyrazole-4-carbonitrile], 1 µM produced 13% inhibition against hERG channels. Besides, the IC50 on hROMK (human Kir1.1) stood at 42 nM. Turning to `Cc1cc(-n2cc(CNC[C@H](O)c3ccc4c(c3C)COC4=O)cn2)nc(C)c1C#N` [Example 71, (R)-6-(4-(((2-hydroxy-2-(4-methyl-1-oxo-1,3-dihydroisobenzofuran-5-yl)ethyl)amino)methyl)-1H-pyrazol-1-yl)-2,4-dimethylnicotinonitrile], the inhibition at 1 µM against hERG channels is 39%. Further, the IC50 on hROMK (human Kir1.1) was 22 nM. The corresponding values for `Cc1c([C@@H](O)CNCc2ccc(-n3cc(C#N)c(OC(F)F)n3)nc2)ccc2c1COC2=O` [Example 175, (R)-3-(difluoromethoxy)-1-(5-(((2-hydroxy-2-(4-methyl-1-oxo-1,3-dihydroisobenzofuran-5-yl)ethyl)amino)methyl)pyridin-2-yl)-1H-pyrazole-4-carbonitrile] are 86% and 3.6 nM. On hERG channels, `Cc1ncc(-c2ccc(CNC[C@H](O)c3ccc4c(c3C)COC4=O)cn2)s1` [Example 111, (R)-5-(1-hydroxy-2-(((6-(2-methylthiazol-5-yl)pyridin-3-yl)methyl)amino)ethyl)-4-methylisobenzofuran-1(3H)-one] came in with an inhibition at 1 µM of 69%. The IC50 at hROMK (human Kir1.1) is 48 nM. On the same counts, the results for `COCCN[C@@H](CNCc1cnn(-c2cc(C)c(C#N)cn2)c1)c1ccc2c(c1C)COC2=O` [Example 57, (R)-6-(4-(((2-((2-methoxyethyl)amino)-2-(4-methyl-1-oxo-1,3-dihydroisobenzofuran-5-yl)ethyl)amino)methyl)-1H-pyrazol-1-yl)-4-methylnicotinonitrile] are 35% and 150 nM. The corresponding values for `COc1nn(-c2ncc(CNC[C@H](O)c3ccc4c(c3C)COC4=O)cn2)cc1C#N` [Example 113, (R)-1-(5-(((2-hydroxy-2-(4-methyl-1-oxo-1,3-dihydroisobenzofuran-5-yl)ethyl)amino)methyl)pyrimidin-2-yl)-3-methoxy-1H-pyrazole-4-carbonitrile] are 12% and 14 nM. The corresponding values for `Cc1c([C@@H](O)CNCc2cnc(-n3cnc(C#N)c3)nc2)ccc2c1COC2=O` [Example 45, (R)-1-(5-(((2-hydroxy-2-(4-methyl-1-oxo-1,3-dihydroisobenzofuran-5-yl)ethyl)amino)methyl)pyrimidin-2-yl)-1H-imidazole-4-carbonitrile] are 74% and 12 nM. In turn, `COc1cc(-c2ncc(CNC[C@H](O)c3ccc4c(c3C)COC4=O)cn2)ncc1C#N` [Example 134, (R)-6-(5-(((2-hydroxy-2-(4-methyl-1-oxo-1,3-dihydroisobenzofuran-5-yl)ethyl)amino)methyl)pyrimidin-2-yl)-4-methoxynicotinonitrile] registered an inhibition at 1 µM on hERG channels of 3.8%. At hROMK (human Kir1.1), the IC50 was determined as 77 nM. On the same counts, the results for `Cc1cc(-n2cc(CNC[C@H](O)c3ccc4c(c3C)COC4=O)c(C(F)F)n2)ncc1C#N` [Example 93, (R)-6-(3-(difluoromethyl)-4-(((2-hydroxy-2-(4-methyl-1-oxo-1,3-dihydroisobenzofuran-5-yl)ethyl)amino)methyl)-1H-pyrazol-1-yl)-4-methylnicotinonitrile] are 29% and 15 nM. On the same counts, the results for `Cc1cc(-n2cc(CNC[C@H](O)c3ccc4c(c3C)COC4=O)c3cccnc32)ncc1C#N` [Example 169, (R)-6-(3-(((2-hydroxy-2-(4-methyl-1-oxo-1,3-dihydroisobenzofuran-5-yl)ethyl)amino)methyl)-1H-pyrrolo[2,3-b]pyridin-1-yl)-4-methylnicotinonitrile] are 79% and 59 nM. The corresponding values for `CC(=O)N[C@@H](CNCc1cnn(-c2cc(C)c(C#N)cn2)c1)c1ccc2c(c1C)COC2=O` [Example 39, (R)—N-(2-(((1-(5-cyano-4-methylpyridin-2-yl)-1H-pyrazol-4-yl)methyl)amino)-1-(4-methyl-1-oxo-1,3-dihydroisobenzofuran-5-yl)ethyl)acetamide] are 2.6% and 58 nM.

As for `COc1nc(-n2cc(CNC[C@H](O)c3ccc4c(c3C)COC4=O)cn2)ccc1C#N` [Example 48, (R)-6-(4-(((2-hydroxy-2-(4-methyl-1-oxo-1,3-dihydroisobenzofuran-5-yl)ethyl)amino)methyl)-1H-pyrazol-1-yl)-2-methoxynicotinonitrile], the inhibition at 1 µM against hERG channels amounted to 67%. Moreover, the IC50 at hROMK (human Kir1.1) came to 14 nM. On the same counts, the results for `COc1nc(-n2cc(CNC[C@H](O)c3ccc4c(c3C)COC4=O)cn2)cc(C)c1C#N` [Example 72, (R)-6-(4-(((2-hydroxy-2-(4-methyl-1-oxo-1,3-dihydroisobenzofuran-5-yl)ethyl)amino)methyl)-1H-pyrazol-1-yl)-2-methoxy-4-methylnicotinonitrile] are 35% and 14 nM.

`Cc1c(C(O)CN(C)Cc2ccc(-n3cc(C#N)c4ccccc43)cc2)ccc2c1COC2=O` (stereo not shown) [Example 12-I, 1-(4-(((2-hydroxy-2-(4-methyl-1-oxo-1,3-dihydroisobenzofuran-5-yl)ethyl)(methyl)amino)methyl)phenyl)-1H-indole-3-carbonitrile] gave an inhibition at 1 µM at hERG channels of 99%. Also, the IC50 on hROMK (human Kir1.1) stood at 78 nM.

`COc1cc(-n2cc(CNC[C@H](O)c3ccc4c(c3C)COC4=O)cn2)cc2c1oc(=O)n2C` [Example 112, (R)-5-(4-(((2-hydroxy-2-(4-methyl-1-oxo-1,3-di-Hydroisobenzofuran-5-yl)ethyl)amino)methyl)-1H-pyrazol-1-yl)-7-methoxy-3-mthylbenzo[d]oxazol-2(3H)-one]: on hERG channels, the inhibition at 1 µM amounted to 4.2%. On hROMK (human Kir1.1), the IC50 was 66 nM.

At hERG channels, `Cc1c([C@@H](O)CNCc2cnn(-c3cnc(C#N)cn3)c2)ccc2c1COC2=O` [Example 41, (R)-5(4-(((2-hydroxy-2-(4-methyl-1-oxo-1,3-dihydroisobenzofuran-5-yl)ethyl)amino)methyl)-1H-pyrazol-1-yl)pyrazine-2-carbonitrile] yielded an inhibition at 1 µM of 50%. Besides, the IC50 at hROMK (human Kir1.1) is 32 nM. The corresponding values for `Cc1c([C@@H](O)CNCc2cnn(-c3cc(F)c4oc(=O)n(C)c4c3)c2)ccc2c1COC2=O` (single isomer, unassigned) [Example 107] are 20% and 27 nM.

For `Cc1cc(-n2cc(CNC[C@H](O)c3ccc4c(c3C)COC4=O)n(C)c2=O)ncc1C#N` [Example 159, (R)-6-(4-(((2-hydroxy-2-(4-methyl-1-oxo-1,3-dihydroisobenzofuran-5-yl)ethyl)amino)methyl)-3-methyl-2-oxo-2,3-dihydro-1H-imidazol-1-yl)-4-methylnicotinonitrile], on hERG channels, the inhibition at 1 µM turned out to be 6.5%. Moreover, the half-inhibitory concentration (IC50) on hROMK (human Kir1.1) was 93 nM. In the case of `CCN(Cc1ccc(-c2ccc3oc(=O)n(C)c3c2)nc1)C[C@H](O)c1ccc2c(c1C)COC2=O` [Example 135, (R)-5-(5-((ethyl(2-hydroxy-2-(4-methyl-1-oxo-1,3-dihydroisobenzofuran-5-yl)ethyl)amino)methyl)pyridin-2-yl)-3-methylbenzo[d]oxazol-2(3H)-one], at hERG channels, the inhibition at 1 µM was found to be 51%. Also, the IC50 on hROMK (human Kir1.1) was 67 nM. `Cc1c([C@@H](O)CNCc2cnn(-c3ccc4c(c3C)COC4=O)c2)ccc2c1COC2=O` [Example 75, (R)-5-(1-hydroxy-2-(((1-(4-methyl-1-oxo-1,3-dihydroisobenzofuran-5-yl)-1H-pyrazol-4-yl)methyl)amino)ethyl)-4-methylisobenzofuran-1(3H)-one]: at hERG channels, at 1 µM the inhibition was 4.3%. On hROMK (human Kir1.1), the IC50 came to 65 nM. `CCc1nn(-c2ncc(CNC[C@H](O)c3ccc4c(c3C)COC4=O)cn2)cc1C#N` [Example 114, (R)-3-ethyl-1-(5-(((2-hydroxy-2-(4-methyl-1-oxo-1,3-dihydroisobenzofuran-5-yl)ethyl)amino)methyl)pyrimidin-2-yl)-1H-pyrazole-4-carbonitrile] registered an inhibition at 1 µM at hERG channels of 25%. Also, at hROMK (human Kir1.1), the IC50 was determined as 17 nM. Consider `Cc1cc(-n2cc(CNC[C@H](O)c3ccc4c(c3C)COC4=O)c(C)n2)ncc1C#N` [Example 74, (R)-6-(4-(((2-hydroxy-2-(4-methyl-1-oxo-1,3-dihydroisobenzofuran-5-yl)ethyl)amino)methyl)-3-methyl-1H-pyrazol-1-yl)-4-methylnicotinonitrile], for which the inhibition at 1 µM at hERG channels stood at 32%. Moreover, the IC50 on hROMK (human Kir1.1) was 59 nM. As for `Cc1cc(-n2cc(CNC(C)C(O)c3ccc4c(c3C)COC4=O)cn2)ncc1C#N` (single isomer, unassigned) [Example 176-I, 6-(4-(((1-hydroxy-1-(4-methyl-1-oxo-1,3-dihydroisobenzofuran-5-yl)propan-2-yl)amino)methyl)-1H-pyrazol-1-yl)-4-methylnicotinonitrile], 1 µM produced 44% inhibition against hERG channels. Also, on hROMK (human Kir1.1), the IC50 came out at 4 nM.

Take `Cc1c([C@@H](O)CNCc2cnn(-c3ccc(C#N)cc3)c2)ccc2c1COC2=O` [Example 160, (R)-4-(4-(((2-hydroxy-2-(4-methyl-1-oxo-1,3-dihydroisobenzofuran-5-yl)ethyl)amino)methyl)-1H-pyrazol-1-yl)benzonitrile]: the inhibition at 1 µM against hERG channels stood at 89%. For the same molecule, at hROMK (human Kir1.1), the IC50 stood at 24 nM. Take `Cc1cc(-c2ccc(CN(C)CC(O)c3ccc4c(c3C)COC4=O)cn2)ncc1C#N` (single isomer, unassigned) [Example 22-I, 5′-(((2-hydroxy-2-(4-methyl-1-oxo-1,3-dihydroisobenzofuran-5-yl)ethyl)(methyl)amino)methyl)-4-methyl-[2,2′-bipyridine]-5-carbonitrile]: on hERG channels, at 1 µM the inhibition was 9.5%.

These data come from patent US10723723B2, “Substituted bicycle heterocyclic derivatives useful as ROMK channel inhibitors” (BRISTOL-MYERS SQUIBB COMPANY, priority 2016, dated 2020).
